Results on 3 compounds are retold here after US9795135B2, “Binary fungicidal composition” (BAYER CORPSCIENCE AKTIENGESELLSCHAFT, priority 2013, dated 2017).

One assay concerns Sphaerotheca fuliginea. Kind of assay: Sphaerotheca test (cucumbers) / preventive. The following applies: 80 ppm a.i.; cucumber sprayed 24 h before inoculation; evaluated 7 d after inoculation. In kind it is in vivo. The procedure: Sphaerotheca Test (Cucumbers)/Preventive
(§1) Biological control agents and diverse chemical active compounds were tested solo and in a mixture of both. The biological control agents SERENADE® DPZ (comprising the biological control agent B1.1.18, Bacillus subtilis, strain AQ30002, Accession No. NRRL B-50421), SERENADE ASO (comprising the biological control agent B1.1.1, Bacillus subtilis, strain QST713/AQ713, Accession No. NRRL B-21661) and SONATA® (comprising the biological control agent B1.1.6, Bacillus pumilus, strain QST2808, Accession No. NRRL B-30087) were diluted with water to the desired application rate of 100 ppm a.i. to 500 ppm a.i., referring to the amount of 1.34% Bacillus subtilis or 1.38% Bacillus pumilis product.
The chemical compounds were solved in acetone+dimethylacetamide in the ratio 1/1+2% PS 16 (Alkylarylpolyglykolether) and diluted with water or the prepared bacteria suspension. Chemical compounds were tested in the concentration of 80 ppm a.i.
In order to test the activity, young plants (kotyledones are fully developed) of cucumber c.v. “Delikatess” were sprayed with the undermentioned preparation of compounds at the stated time of application. 24 h after application, the plants were inoculated with an aqueous spore suspension of Sphaerotheca fuliginea. Infested plants were stored in greenhouse at 22° C. and 70% relative humidity.
The test was evaluated 7 d after inoculation. Assessment: % infested leaf. 0% efficacy corresponds to the level of disease in the untreated control while an efficacy of 100% means that no disease is observed.

For another assay, the system named is Alternaria solani. Kind of assay: Alternaria test (tomatoes) / preventive. In kind it is in vivo. The following applies: 80 ppm a.i.; tomatoes sprayed 24 h before inoculation; evaluated 3 days after inoculation. The procedure:
Alternaria Test (Tomatoes)/Preventive
as §1, with “B-50421), SERENADE®” for “B-50421), SERENADE”
The chemical compounds were solved in acetone+dimethylacetamide in a ratio of 1/1+2% PS 16 (Alkylarylpolyglykolether) and diluted with water or the prepared bacteria suspension. Chemical compounds were tested in the concentration of 80 ppm a.i.
In order to test the activity, young plants of tomatoes (21 d after sowing) were sprayed with the preparation of active compound at the stated rate of application. 24 h after application, the plants were inoculated with an aqueous spore suspension (7.500 spores/ml) of Alternaria solani. The wetted plants were then placed in an incubation cabinet at approximately 20° C. and a relative atmospheric humidity of 100% and darkness.
The test was evaluated 3 days after the inoculation. Assessment: % infested leaf. 0% efficacy corresponds to the level of disease in the untreated control while an efficacy of 100% means that no disease is observed.

Take `CC1(C)N=C(c2cnc3ccccc3c2)c2cccc(F)c2C1(C)C` [(I-1)]: the “Efficacy in % Found*” value amounted to 49% in the assay with Sphaerotheca fuliginea and 37% in the assay with Alternaria solani.
The matching figures for `CC1(C)N=C(c2cnc3ccccc3c2)c2cccc(F)c2C1(F)F` [(I-3)]: 32% and 37%.
The matching figures for `CC1(C)N=C(c2cnc3ccccc3c2)c2ccccc2C1(F)F` [(I-2)]: 35% and 13%.
